Results on eight compounds are retold here after PMC6514680, “Labdane and Abietane Diterpenoids from Juniperus oblonga and Their Cytotoxic Activity” (Molecules, 2019).

Series [1] can be described thus: MTT cytotoxicity assay, MCF-7. The arrangement: cytotoxicity at 72 h: dose or concentration left out as unconfirmed. Particulars: human, MCF-7 cells. In general terms: Formazan colour is commonly taken as a measure of viable cells.
Description: (§1) MTT assay was used to measure the in vitro cytotoxicity of the isolated compounds. Human breast adenocarcinoma cell line (MCF-7), human liver hepatocellular carcinoma cell line (HepG2), and human cervical cancer cell line (HeLa) were cultured in Dulbecco’s modified Eagle’s medium (DMEM) and Roswell Park Memorial Institute medium (RPMI 1640), which was supplemented with 10% fetal bovine serum (FBS) at 37 °C in a humidified atmosphere of 5% CO2. The cells were cultured in 96-well plates for 24 h and then treated with test compounds at various concentrations (8–125 μM) for 72 h. After incubation for another 4 h with a 20 µL aliquot of the MTT [3-(4,5-dimethylthiazol-2-yl)-2,5-diphenyl tetrazolium bromide] solution (5 mg/mL in PBS), the medium was discarded, and 150 µL of DMSO was added to dissolve the produced formazan. The absorbance was measured at 490 nm and 570 nm using a microplate reader. Doxorubicin was used as a positive control. Each experiment was carried out in triplicate. The IC50 values were calculated using Graphpad Prism 5 software.
The nature of series [2]: MTT cytotoxicity assay, HepG2. Also on record: cytotoxicity at 72 h / Cytotoxicity (%I) HepG2: dose or concentration left out as unconfirmed. Particulars: human, HepG2 cells.
Description: as §1
Series [3] concerns three human tumor cell lines (HepG2, MCF-7, and HeLa). Nature of the series: MTT cytotoxicity assay, summary over three tumor cell lines.
The nature of series [4]: MTT cytotoxicity assay, HeLa. The arrangement: cytotoxicity at 72 h / Cytotoxicity (%I) HeLa: dose or concentration left out as unconfirmed. The settings on record: human, HeLa cells.
Description: as §1
Series [5] can be described thus: MTT cytotoxicity assay, LO2. Also on record: dose or concentration left out as unconfirmed. Particulars: human, LO2 normal liver cells.
The test system of series [6] is human hepatocellular carcinoma cell line (HepG2). The arrangement: Cytotoxicity (%I) HepG2: dose or concentration left out as unconfirmed.
Description: as §1
The subject of series [7] is human breast cancer cell line (MCF-7).
Description: as §1
Series [8] relates to human cervical carcinoma cancer cell line (HeLa). Also on record: Cytotoxicity (%I) HeLa: dose or concentration left out as unconfirmed.
Description: as §1
For series [9], the system named is normal human liver cell line (LO2). The arrangement: dose or concentration left out as unconfirmed.
Series [10] deals with human breast cancer cell line (MCF-7). The experiment in a line: MTT cytotoxicity assay, MCF-7. The arrangement: cytotoxicity at 72 h: dose or concentration left out as unconfirmed. The settings on record: MCF-7; 4 mg/mL; MTT.
Description: as §1
Series [11] has as its system human hepatocellular carcinoma cell line (HepG2). Nature of the series: MTT cytotoxicity assay, HepG2. The settings on record: HepG2; MTT. Also on record: cytotoxicity at 72 h / Cytotoxicity (%I) HepG2: dose or concentration left out as unconfirmed.
Description: as §1
Series [12] deals with human cervical carcinoma cancer cell line (HeLa). Nature of the series: MTT cytotoxicity assay, HeLa. The settings on record: HeLa; MTT. The arrangement: cytotoxicity at 72 h / Cytotoxicity (%I) HeLa: dose or concentration left out as unconfirmed.
Description: as §1
In series [13] the test system is normal human liver cell line (LO2). The experiment in a line: MTT cytotoxicity assay, LO2. The arrangement: dose or concentration left out as unconfirmed. The settings on record: LO2 normal liver cells; MTT.

Where two headings read alike, the source gives them in different places.

For `CC(C)c1cc2c(cc1O)C1(C)CCCC(C)(C)C1=C(O)C2=O` (centres unmarked) [Compound 6, 6,12-dihydroxyabieta-5,8,11,13-tetraen-7-one], the results for the IC50 at 72 h in series [1], in [2] and in series [4] were 58.4 ± 2.45 µM, 48.7 ± 1.31 µM and 24.4 ± 2.05 µM, respectively. In addition, the cytotoxicity at 72 h in series [1] turned out to be 84%; in [2], 86.6%; in series [4], 83.8%; in [5], 27.8%. The cytotoxicity in words entry in series [3] (HepG2, MCF-7 and HeLa, MTT) was “moderate cytotoxicity”. The IC50 – broadly, the concentration that inhibits the measured activity by half – in series [3] (Homo sapiens, read-out: IC50 values, range over all three cell lines) was in the range of 24.4 to 58.4 µM.
For `C=C1CC[C@@H]2[C@](C)(CCC[C@]2(C)C(=O)O)[C@H]1C/C=C(/C)C=O` [Compound 2, 15-nor-14-oxolabda-8(17),12Z-dien-19-oic acid], the cytotoxicity at 72 h in series [1] stood at 21.1%; in series [2] it was 16.1%; in [4], 23.9%; in [5], 10.6%.
With sempervirol [Compound 10], in [6], the “Cytotoxicity (%I) HepG2” value came to 48.67% and the IC50 was 64.9 ± 2.64 µM. Moreover, in [3], the cytotoxicity in words result is listed as “weaker activity”. In [7], the “Cytotoxicity (%I @ 4 mg/mL) MCF-7” value came out at 43.4% and inhibition was half-maximal at 80 ± 1.2 µM (IC50). Besides, in [8], the “Cytotoxicity (%I) HeLa” value was 63.4% and the IC50 was 56.9 ± 2.39 µM. Besides, the “Cytotoxicity (%I) LO2” value in series [9] is 19.08%.
`COc1cccc2c1C(=O)c1c(O)c3c(c(O)c1C2=O)C[C@@](O)(C(=O)CO)C[C@@H]3O[C@H]1C[C@H](N)[C@H](O)[C@H](C)O1` [Doxorubicin, reference compound]: the IC50 at 72 h in series [1] is 3.44 ± 1.59 µM; in series [2], 3.18 ± 1.19 µM; in series [4], 3.64 ± 1.37 µM. Besides, the cytotoxicity at 72 h was determined as 46.5% in series [1], 42.2% in series [2], 49.5% in series [4] and 46.7% in series [5].
For the compound helioxanthin [Compound 5], the “Cytotoxicity (%I @ 4 mg/mL) MCF-7” value in series [10] turned out to be 10.09%. In series [11], the “Cytotoxicity (%I) HepG2” value was found to be 0.11%. For the same compound, in series [12], the “Cytotoxicity (%I) HeLa” value is 0.22%. The “Cytotoxicity (%I) LO2” value in series [13] stood at 9.05%.
Consider `C=C1CCC2C(C)(C(=O)O)CCCC2(C)C1C=CC(C)=O` [Compound 1, (4R,5S,9S,10R)-13-des-ethyl-13-oxolabda-8(17),11E-dien-19-oic acid], for which the cytotoxicity at 72 h in series [1] turned out to be 28.4%; in series [2] it was 18.4%; in [4], 26.4%; in series [5] it was 20.6%.
The corresponding values for `CC(C)c1cc2c(cc1O)[C@@]1(C)CCCC(C)(C)[C@@H]1CC2=O` [Compound 3, sugiol] are 9.2%, 35%, 12.3% and 26.6%.
Consider `O=c1ccc2ccc(O)cc2o1` [Compound 13, umbelliferone], for which the cytotoxicity at 72 h in [1] amounted to 18%; in [2], 32.7%; in series [4], 3.6%; in [5], 26.6%.
